Drawing on patent US10106504B2, “Pyridin-3-yl acetic acid derivatives as inhibitors of human immunodeficiency virus replication” (priority 2015, dated 2018), this text covers EC50 for four molecules.

The experiment concerns NL-RLuc virus. As to the kind of experiment: Inhibition of HIV replication (NL-RLuc virus, luciferase readout in MT-2 cells). Type of experiment: cell-based. The note with it: Human immunodeficiency virus 1, MT2, 120 h, read-out: Activity. In outline:
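MT-2 cells were infected with NL-RLuc (Renilla luciferase in place of nef) in the presence of serial compound dilutions, in RPMI 1640 with 10% heat-inactivated FBS. After 5 days, luciferase was measured. EC50 came from the median effect equation using at least 2 experiments.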

Where only a bound is given, the exact number is not on record here.

For `Cc1nc(C)c([C@H](OC(C)(C)C)C(=O)O)c(-c2ccc3c4c(ccnc24)CCO3)c1-c1ccc(OCCc2ccc(F)cc2)cc1` [Example 43, (2S)-2-(tert-Butoxy)-2-(4-(2,3-dihydropyrano[4,3,2-de]quinolin-7-yl)-5-(4-(4-fluorophenethoxy)phenyl)-2,6-dimethylpyridin-3-yl)acetic Acid], the EC50 fell in the range of 100 to 1000 nM.

Consider `Cc1nc(C)c([C@H](OC(C)(C)C)C(=O)O)c(-c2ccc3c(c2)CCCO3)c1-c1ccc2c(c1)CCN(Cc1ccccc1F)C2` [Example 23, (S)-2-(tert-Butoxy)-2-(4-(chroman-6-yl)-5-(2-(2-fluorobenzyl)-1,2,3,4-tetrahydroisoquinolin-6-yl)-2,6-dimethylpyridin-3-yl)acetic Acid], for which the EC50 is less than 100 nM. As for `Cc1cccc(Cl)c1CN1CCc2cc(-c3c(C)nc(C)c([C@H](OC(C)(C)C)C(=O)O)c3-c3ccc4c(c3)CCCO4)ccc2C1` [Example 29, (S)-2-(tert-Butoxy)-2-(5-(2-(2-chloro-6-methylbenzyl)-1,2,3,4-tetrahydroisoquinolin-6-yl)-4-(chroman-6-yl)-2,6-dimethylpyridin-3-yl)acetic Acid], the figure is less than 100 nM; as for `Cc1nc(CNCC2CCOCC2)c(-c2ccc(OCCc3ccc(F)cc3)cc2)c(-c2ccc3c(c2)CCCO3)c1[C@H](OC(C)(C)C)C(=O)O` [Example 11, (S)-2-(tert-Butoxy)-2-(4-(chroman-6-yl)-5-(4-(4-fluorophenethoxy)phenyl)-2-methyl-6-((((tetrahydro-2H-pyran-4-yl)methyl)amino)methyl)pyridin-3-yl)acetic Acid], less than 100 nM.
